# From patent publication US8889704B2 (Array BioPharma Inc., priority 2011, dated 2014)
# Counter-ions that a name gives are not always drawn.
# Key:
# Type in all cases: biochemical
# PIM-1 = PIM-1 (Homo sapiens, UniProt P11309); assay: Enzyme PIM-1 Assay ([33P]ATP incorporation into PIM2tide, filter plate); settings: averaged IC50; 35 μM ATP, 7.5 μM PIM2tide, 0.25 nM PIM-1, 60 min at 22° C.
# Summary of the method: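 Radiometric assay: 0.25 nM PIM-1 phosphorylates 7.5 μM PIM2tide with 35 μM [γ-33P]ATP in 20 mM MOPS pH 7.4, 10 mM MgCl2, 1 mM DTT, 0.005% Tween-20, 60 min at 22 °C. Product captured on P81 filters, scintillation counted; 10-point 3-fold curve from 10 μM top, 2% DMSO, IC50 by 4-parameter logistic fit of POC.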
# [1] = target: T1, GST-tagged recombinant full-length human Pim-2 (Homo sapiens, UniProt Q9P1W9); assay: PIM-2 Assay (as Example A); settings: averaged IC50; 4 μM ATP, 1.0 μM PIM2tide, 1.5 nM Pim-2
# T1 construct: GST-tagged recombinant full-length human Pim-2; GST
# T1 sequence (Q9P1W9 whole entry): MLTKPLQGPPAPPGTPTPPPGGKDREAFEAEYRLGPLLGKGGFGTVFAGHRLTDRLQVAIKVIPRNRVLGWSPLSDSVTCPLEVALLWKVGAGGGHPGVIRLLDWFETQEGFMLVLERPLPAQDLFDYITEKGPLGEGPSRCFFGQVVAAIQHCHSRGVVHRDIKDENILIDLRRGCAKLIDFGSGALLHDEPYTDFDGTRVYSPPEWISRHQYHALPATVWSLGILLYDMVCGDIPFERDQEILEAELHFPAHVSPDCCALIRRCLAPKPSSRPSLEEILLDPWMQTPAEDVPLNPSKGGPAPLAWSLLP
# Summary of the method: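 Radiometric filter-binding assay: GST-tagged full-length human Pim-2 (1.5 nM) phosphorylates 1.0 μM PIM2tide with 4 μM [γ-33P]ATP for 60 min at 22 °C in pH 7.4 MOPS buffer, 2% DMSO. 10-point 3-fold dilutions from 10 μM top dose; IC50 from 4-parameter fit of percent of control.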
# recombinant rat PIM-3 = recombinant rat PIM-3 (Rattus norvegicus, UniProt O70444); assay: PIM-3 Assay (as Example A); settings: averaged IC50; 30 μM ATP, 3.75 μM PIM2tide, 0.5 nM PIM-3
# Summary of the method: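 Recombinant rat PIM-3 (0.5 nM) with 3.75 μM PIM2tide and 30 μM [γ-33P]ATP in MOPS pH 7.4 buffer, 60 min at 22 °C; labelled peptide captured on phosphocellulose filters and counted by scintillation. 10-point curve (top dose 10 μM, 2% DMSO); IC50 from 4-parameter fit of percent of control.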
# Chain of PIM-1 (P11309 whole entry, species assumed): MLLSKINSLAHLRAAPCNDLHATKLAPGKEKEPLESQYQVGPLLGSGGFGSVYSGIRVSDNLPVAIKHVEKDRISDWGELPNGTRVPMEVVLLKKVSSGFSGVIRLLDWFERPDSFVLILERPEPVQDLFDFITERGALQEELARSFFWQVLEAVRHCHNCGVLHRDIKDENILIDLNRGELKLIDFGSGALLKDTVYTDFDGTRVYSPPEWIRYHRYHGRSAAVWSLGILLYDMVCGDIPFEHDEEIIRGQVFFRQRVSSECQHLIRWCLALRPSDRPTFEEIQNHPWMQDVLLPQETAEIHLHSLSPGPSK
IC50 (PIM-1) [nM],IC50 [1] [nM],IC50 (recombinant rat PIM-3) [nM],SMILES
0.1,11,1.1,"N[C@H]1CCN([C@@H](c2ccc3nnc(-c4ccc5cccc(C6CC6)c5n4)n3c2)C(F)(F)F)C1 [Example 51, (S)-1-((S)-1-(3-(8-cyclopropylquinolin-2-yl)-[1,2,4]triazolo[4,3-a]pyridin-6-yl)-2,2,2-trifluoroethyl)pyrrolidin-3-amine dihydrochloride]"
1.39,> 100,2,"CC(C)NC(=O)c1ccc2ccc(-c3nnc4ccc([C@H](N5CC[C@@H](N)C5)C(F)(F)F)cn34)nc2c1 [Example 52, 2-(6-((S)-1-((R)-3-aminopyrrolidin-1-yl)-2,2,2-trifluoroethyl)-[1,2,4]triazolo[4,3-a]pyridin-3-yl)-N-isopropylquinoline-7-carboxamide]"
0.24,27,0.3,"CC1(NC(=O)c2ccc3ccc(-c4nnc5ccc([C@@H](N6CC[C@H](N)C6)C(F)(F)F)cn45)nc3c2)CC1 [Example 53, 2-(6-((R)-1-((S)-3-aminopyrrolidin-1-yl)-2,2,2-trifluoroethyl)-[1,2,4]triazolo[4,3-a]pyridin-3-yl)-N-(1-methylcyclopropyl)quinoline-7-carboxamide dihydrochloride]"
0.41,67,0.6,"CC(C)(C)NC(=O)c1ccc2ccc(-c3nnc4ccc([C@@H](N5CC[C@@H](N)C5)C(F)(F)F)cn34)nc2c1 [Example 54, 2-(6-((R)-1-((R)-3-aminopyrrolidin-1-yl)-2,2,2-trifluoroethyl)-[1,2,4]triazolo[4,3-a]pyridin-3-yl)-N-tert-butylquinoline-7-carboxamide dihydrochloride]"
0.25,35,0.3,"CC1(NC(=O)c2ccc3ccc(-c4nnc5ccc([C@@H](N6CC[C@@H](N)C6)C(F)(F)F)cn45)nc3c2)CC1 [Example 55, 2-(6-((R)-1-((R)-3-aminopyrrolidin-1-yl)-2,2,2-trifluoroethyl)-[1,2,4]triazolo[4,3-a]pyridin-3-yl)-N-(1-methylcyclopropyl)quinoline-7-carboxamide dihydrochloride]"
0.14,16,2.4,"N[C@@H]1CCN([C@@H](c2ccc3nnc(-c4ccc5cccc(C6CC6)c5n4)n3c2)C(F)(F)F)C1 [Example 56, (R)-1-((S)-1-(3-(8-cyclopropylquinolin-2-yl)-[1,2,4]triazolo[4,3-a]pyridin-6-yl)-2,2,2-trifluoroethyl)pyrrolidin-3-amine]"
0.45,> 100,0.9,"CN[C@H]1CCN([C@H](c2ccc3nnc(-c4ccc5ccc(C(=O)NC(C)C)cc5n4)n3c2)C(F)(F)F)C1 [Example 57, N-isopropyl-2-(6-((R)-2,2,2-trifluoro-1-((S)-3-(methylamino)pyrrolidin-1-yl)ethyl)-[1,2,4]triazolo[4,3-a]pyridin-3-yl)quinoline-7-carboxamide]"
0.6,> 100,0.7,"CN[C@H]1CCN([C@H](c2ccc3nnc(-c4ccc5ccc(C(=O)NC(C)(C)C)cc5n4)n3c2)C(F)(F)F)C1 [Example 58, N,N-tert-butyl-2-(6-((R)-2,2,2-trifluoro-1-((S)-3-(methylamino)pyrrolidin-1-yl)ethyl)-[1,2,4]triazolo[4,3-a]pyridin-3-yl)quinoline-7-carboxamide]"
0.56,> 100,0.8,"CCC(C)(C)NC(=O)c1ccc2ccc(-c3nnc4ccc([C@@H](N5CC[C@@H](N)C5)C(F)(F)F)cn34)nc2c1 [Example 59, 2-(6-((R)-1-((R)-3-aminopyrrolidin-1-yl)-2,2,2-trifluoroethyl)-[1,2,4]triazolo[4,3-a]pyridin-3-yl)-N-tert-pentylquinoline-7-carboxamide dihydrochloride]"
0.19,77,4,"N[C@H]1CCN([C@H](c2ccc3nnc(-c4ccc5ccc(F)c(C6CC6)c5n4)n3c2)C(F)(F)F)C1 [Example 60, (S)-1-((R)-1-(3-(8-cyclopropyl-7-fluoroquinolin-2-yl)-[1,2,4]triazolo[4,3-a]pyridin-6-yl)-2,2,2-trifluoroethyl)pyrrolidin-3-amine dihydrochloride]"
0.59,> 100,3.7,"N[C@@H]1CCN([C@H](c2ccc3nnc(-c4ccc5ccc(C6CC6)cc5n4)n3c2)C(F)(F)F)C1 [Example 61, (R)-1-((R)-1-(3-(7-cyclopropylquinolin-2-yl)-[1,2,4]triazolo[4,3-a]pyridin-6-yl)-2,2,2-trifluoroethyl)pyrrolidin-3-amine dihydrochloride]"
0.18,> 100,0.3,"CC(C)C(=O)Nc1ccc2ccc(-c3nnc4ccc([C@@H](N5CC[C@H](N)C5)C(F)(F)F)cn34)nc2c1 [Example 70, N-(2-(6-((R)-1-((S)-3-aminopyrrolidin-1-yl)-2,2,2-trifluoroethyl)-[1,2,4]triazolo[4,3-a]pyridin-3-yl)quinolin-7-yl)isobutyramide]"

# The remaining lines, values behind:
SMILES,IC50 (PIM-1) [nM],IC50 [1] [nM],IC50 (recombinant rat PIM-3) [nM]
"CC(=O)N[C@H]1CCN(C(c2ccc3nnc(-c4ccc5cccc(OCC6CC6)c5n4)n3c2)C(F)(F)F)C1 (stereo partly drawn) [Example 50, N-((3S)-1-(1-(3-(8-(cyclopropylmethoxy)quinolin-2-yl)-[1,2,4]triazolo[4,3-a]pyridin-6-yl)-2,2,2-trifluoroethyl)pyrrolidin-3-yl)acetamide]",4.88,> 100,41
"CC(C)(C)c1cccc2ccc(-c3nnc4ccc([C@@H](N5C[C@@H]6C[C@H]5CN6)C(F)(F)F)cn34)nc12 [Example 62, 2-(6-((R)-1-((1S,4S)-2,5-diazabicyclo[2.2.1]heptan-2-yl)-2,2,2-trifluoroethyl)-[1,2,4]triazolo[4,3-a]pyridin-3-yl)-8-tert-butylquinoline]",0.71,2.9,1.4
"Fc1ccc2ccc(-c3nnc4ccc([C@@H](N5C[C@@H]6C[C@H]5CN6)C(F)(F)F)cn34)nc2c1 [Example 63, 2-(6-((R)-1-((1S,4S)-2,5-diazabicyclo[2.2.1]heptan-2-yl)-2,2,2-trifluoroethyl)-[1,2,4]triazolo[4,3-a]pyridin-3-yl)-7-fluoro quinoline dihydrochloride]",11.7,> 100,25
"FC(F)(F)[C@@H](c1ccc2nnc(-c3ccc4ccc(Cl)cc4n3)n2c1)N1C[C@@H]2C[C@H]1CN2 [Example 64, 2-(6-((R)-1-((1S,4S)-2,5-diazabicyclo[2.2.1]heptan-2-yl)-2,2,2-trifluoroethyl)-[1,2,4]triazolo[4,3-a]pyridin-3-yl)-7-chloro quinoline dihydrochloride]",9.33,> 100,14
"FC(F)(F)[C@@H](c1ccc2nnc(-c3ccc4cccc(C5CC5)c4n3)n2c1)N1C[C@@H]2C[C@H]1CN2 [Example 65, 2-(6-((R)-1-((1S,4S)-2,5-diazabicyclo[2.2.1]heptan-2-yl)-2,2,2-trifluoroethyl)-[1,2,4]triazolo[4,3-a]pyridin-3-yl)-8-cyclopropylquinoline dihydrochloride]",1.45,18,2
"CCc1cccc2ccc(-c3nnc4ccc([C@@H](N5C[C@@H]6C[C@H]5CN6)C(F)(F)F)cn34)nc12 [Example 66, 2-(6-((R)-1-((1S,4S)-2,5-diazabicyclo[2.2.1]heptan-2-yl)-2,2,2-trifluoroethyl)-[1,2,4]triazolo[4,3-a]pyridin-3-yl)-8-ethylquinoline dihydrochloride]",0.92,14,1.7
"FC(F)(F)[C@@H](c1ccc2nnc(-c3ccc4cccc(OCC5CC5)c4n3)n2c1)N1C[C@@H]2C[C@H]1CN2 [Example 67, 2-(6-((R)-1-((1S,4S)-2,5-diazabicyclo[2.2.1]heptan-2-yl)-2,2,2-trifluoroethyl)-[1,2,4]triazolo[4,3-a]pyridin-3-yl)-8-(cyclopropylmethoxy)quinoline dihydrochloride]",1.63,63,3.2
"FC(F)(F)[C@@H](c1ccc2nnc(-c3ccc4ccc(Br)cc4n3)n2c1)N1C[C@@H]2C[C@H]1CN2 [Example 68, 2-(6-((R)-1-(1S,4S)-2,5-diazabicyclo[2.2.1]heptan-2-yl)-2,2,2-trifluoroethyl)-[1,2,4]triazolo[4,3-a]pyridin-3-yl)-7-bromo quinoline dihydrochloride]",4.09,> 100,14
"COc1c(C2CC2)ccc2ccc(-c3nnc4ccc([C@@H](N5CC[C@H](N)C5)C(F)(F)F)cn34)nc12 [Example 69, (S)-1-((R)-1-(3-(7-cyclopropyl-8-methoxyquinolin-2-yl)-[1,2,4]triazolo[4,3-a]pyridin-6-yl)-2,2,2-trifluoroethyl)pyrrolidin-3-amine dihydrochloride]",0.21,38,0.5
